Measured values as given in PubChem BioAssay (NCI).
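Interpolation was linear, between the two tested concentrations surrounding the appropriate level; five concentrations were tested over 48 hours in 96-well plates. TGI: concentration producing complete growth inhibition.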

Legend:
Experiment in all cases: NCI anticancer screen, dose series, 48 h
[1] = test system: SNB-75 CNS
[2] = test system: RXF 393 renal
[3] = test system: HCT-116 colon
[4] = test system: NCI-H460 lung
[5] = test system: OVCAR-8 ovarian
[6] = test system: LOX IMVI melanoma
[7] = test system: HOP-92 NSCLC
[8] = test system: UACC-62 melanoma
[9] = test system: OVCAR-4 ovarian
[10] = test system: SK-MEL-28 melanoma
[11] = test system: SK-OV-3 ovarian
[12] = test system: EKVX NSCLC
[13] = test system: NCI-H522 lung
[14] = test system: 786-0 renal
[15] = test system: SF-268 CNS
[16] = test system: UO-31 renal
[17] = test system: HOP-62 NSCLC
[18] = test system: DMS 273 small cell lung
[19] = test system: TK-10 renal
[20] = test system: SNB-19 CNS
[21] = test system: SF-295 CNS
[22] = test system: COLO 205 colon
[23] = test system: HT29 colon
[24] = test system: MALME-3M melanoma
[25] = test system: CAKI-1 renal
[26] = test system: DMS 114 small cell lung
[27] = test system: XF 498 CNS
[28] = test system: SK-MEL-5 melanoma
[29] = test system: MOLT-4 leukemia
[30] = test system: A549 NSCLC
[31] = test system: DLD-1 colon
[32] = test system: RXF-631 renal
[33] = test system: A498 renal
[34] = test system: OVCAR-3 ovarian
[35] = test system: U251 CNS
[36] = test system: M19-MEL melanoma
[37] = test system: ACHN renal
[38] = test system: HCC-2998 colon
[39] = test system: UACC-257 melanoma
[40] = test system: K-562 leukemia
[41] = test system: NCI-H23 lung
[42] = test system: SNB-78 CNS
[43] = test system: KM12 colon
[44] = test system: SK-MEL-2 melanoma
[45] = test system: SN12C renal
[46] = test system: LXFL 529 NSCLC
[47] = test system: SW-620 colon
[48] = test system: RPMI-8226 leukemia
[49] = test system: CCRF-CEM leukemia
[50] = test system: NCI-H226 lung
[51] = test system: M14 melanoma
[52] = test system: IGROV1 ovarian
[53] = test system: HOP-18 NSCLC
[54] = test system: SR leukemia
[55] = test system: SF-539 CNS
[56] = test system: OVCAR-5 ovarian
[57] = test system: KM20L2 colon
[58] = test system: HCT-15 colon
[59] = test system: HL-60(TB) leukemia

Measured: TGI

Nc1ncnc2c1ncn2COC/C=C/I
not listed: [57] | [58] | [59]
> 100 µM: all other assays above

Cc1ccc(NC(=O)CC2C(=O)Nc3ccccc3S2(=O)=O)cc1C (centres undefined)
not listed: [11] | [15] | [17] | [22] | [43] | [53]
> 100 µM: all other assays above
